Patent US20100120690A1, “Polypeptides Having Antimicrobial Activity and Polynucleotides Encoding Same” (Novozymes Adenium Biotech A/S, priority 2005, published 2010)

Tests used:
Type in all cases: cell-based
[1] = test system: Staphylococcus aureus, ATCC 29737; test: MIC, NCCLS/CLSI guidelines (Example 5), strain C; conditions: relative to wildtype Plectasin; average of two independent experiments
Description: (§1) Plectasin wild-type (SEQ ID NO: 1) and several variants of Plectasin were expressed and purified. The Minimal Inhibitory Concentration (MIC) was determined to test for their antimicrobial activity following the NCCLS guidelines from CLSI (Clinical and Laboratory Standards Institute; formerly known as National Committee for Clinical and Laboratory Standards).
(§2) The peptides were tested against the following strains: • A: Staphylococcus aureus, ATCC 29213; • B: Staphylococcus aureus, ATCC 25923; • C: Staphylococcus aureus, ATCC 29737; • D: Staphylococcus aureus, MRSA ST5 (2001), multi-resistant clinical human isolate from Statens Serum Institut, Denmark; • E: Staphylococcus aureus, MRSA ST80 (2003), multi-resistant clinical human isolate from Statens Serum Institut, Denmark.
(§3) All MIC values represent an average of two independent experiments; and all results in Table 5 are expressed relative to wildtype Plectasin:
(§4) 0: >100% of Plectasin wildtype MIC; 1: 80-100% of Plectasin wildtype MIC; 2: 50-80% of Plectasin wildtype MIC; 3: <50% of Plectasin wildtype MIC.

[2] = test system: Staphylococcus aureus, ATCC 29213; test: MIC, NCCLS/CLSI guidelines (Example 5), strain A; conditions: relative to wildtype Plectasin; average of two independent experiments
Description: as §1, §2, §3, §4

[3] = test system: panel of 6 different strains of Staphylococcus aureus; test: Average MIC, NCCLS/CLSI guidelines using caMHB (Example 6); conditions: average over 6 S. aureus strains, duplicate; MIC above 32 counted as 64; read after 18-24 hours at 37° C.
Description: A large number of antimicrobial peptides of the invention were tested against a panel of 6 different strains of Staphylococcus aureus listed below:
Staphylococcus aureus, ATCC29213, MSSA, NCCLS reference strain; Staphylococcus aureus, ATCC25923, MSSA, NCCLS reference strain; Staphylococcus aureus, ATCC29737, MSSA; Staphylococcus aureus, E33235, MSSA; Staphylococcus aureus, 698-01, MRSA ST5, Str, Kan, Oxa; Staphylococcus aureus, 566-03, MRSA ST80, Oxa, Tet, Fus, Kan.
The staphylococci were exposed to the following peptide concentrations: 32; 16; 8; 4; 2; 1; 0.5; 0.25; 0.13; […]; and 0.03 microgram/mL. All peptides were purified, HPLC quantified and the concentrated peptides (>160 micrograms/mL) were diluted to 160 micrograms/mL in peptide dilution buffer (0.1% BSA, 0.01% Acetic Acid).
The MIC determination was done essentially as described by NCCLS/CLSI guidelines using caMHB. The MICs were read after 18-24 hours of 37° C. incubations and recorded along with the CFU in the table below.
A total number of 95 antimicrobial peptides of the invention were evaluated in duplicate against the 6 bacterial strains described above.
In the majority of the double determinations (93%), the MIC varied <2 fold. An average MIC is tabulated below. If the MIC was above 32 micrograms/mL, a value of 64 was used to calculate the average.

[4] = test system: Staphylococcus aureus, MRSA ST80 (2003); test: MIC, NCCLS/CLSI guidelines (Example 5), strain E; conditions: relative to wildtype Plectasin; average of two independent experiments
Description: as §1, §2, §3, §4

[5] = test system: Staphylococcus aureus, MRSA ST5 (2001); test: MIC, NCCLS/CLSI guidelines (Example 5), strain D; conditions: relative to wildtype Plectasin; average of two independent experiments
Description: as §1, §2, §3, §4

[6] = test system: Staphylococcus carnosus ATCC51365; test: Yeast screening assay: radial diffusion assay of yeast supernatants; parameters: key: An activity of 3 is better than Plectasin; An activity of 2 corresponds to the activity of Plectasin; 1 is worse than Plectasin; conditions: yeast supernatant, clearing zone in radial diffusion assay
How it was run: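 Supernatants from S. cerevisiae expressing plectasin variants, grown 3 days at 30 °C in galactose medium, were applied to agarose containing 5×10^5 cfu/mL S. carnosus. Plates were incubated 3 h at 37 °C, overlaid, left overnight and MTT-stained. Clearing zones were scored as 2 = plectasin-like, 3 = better, 1 = worse.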

[7] = test system: Staphylococcus aureus, ATCC 25923; test: MIC, NCCLS/CLSI guidelines (Example 5), strain B; conditions: relative to wildtype Plectasin; average of two independent experiments
Description: as §1, §2, §3, §4

Substance: D9S + Q14L: variant of Plectasin (SEQ ID NO: 1) (GFGCNGPWSEDDMLCHNHCKSIKGYKGGYCAKGGFVCKCY)
- Relative MIC, strain C [1]: 3 (<50% of Plectasin wildtype MIC)
- Relative MIC, strain A [2]: 3 (<50% of Plectasin wildtype MIC)
- Average MIC [3]: 3 micrograms/mL
- Relative MIC, strain E [4]: 3 (<50% of Plectasin wildtype MIC)
- Relative MIC, strain D [5]: 3 (<50% of Plectasin wildtype MIC)

Substance: GFGCAGPWDEDDMQCHNHCKSIKGYKGGYCAKGGFVCKCY [Mutation N5A]
- Average MIC [3]: 29 micrograms/mL
- Activity (antimicrobial activity relative to the activity of plectasin) [6]: 3

Substance: GFGCGGPWDEDDMQCHNHCKSIKGYKGGYCAKGGFVCKCY [Mutation N5G]
- Average MIC [3]: 24 micrograms/mL
- Activity (antimicrobial activity relative to the activity of plectasin) [6]: 3

Substance: GFGCNGPWDEDDMFCHNHCKSIKGYKGGYCAKGGFVCKCY [Mutation Q14F]
- Relative MIC, strain C [1]: 3 (<50% of Plectasin wildtype MIC)
- Relative MIC, strain A [2]: 1 (80-100% of Plectasin wildtype MIC)
- Average MIC [3]: 5 micrograms/mL
- Relative MIC, strain E [4]: 3 (<50% of Plectasin wildtype MIC)
- Relative MIC, strain D [5]: 2 (50-80% of Plectasin wildtype MIC)
- Activity (antimicrobial activity relative to the activity of plectasin) [6]: 3

Substance: GFGCNGPWDEDDMGCHNHCKSIKGYKGGYCAKGGFVCKCY [Mutation Q14G]
- Average MIC [3]: 18 micrograms/mL
- Activity (antimicrobial activity relative to the activity of plectasin) [6]: 3

Substance: GFGCNGPWDEDDMQCHNHCKSIKGYKGGYCAKGGFLCKCY [Mutation V36L]
- Average MIC [3]: 26 micrograms/mL
- Activity (antimicrobial activity relative to the activity of plectasin) [6]: 3

Substance: GFGCNGPWDEDDMQCHNHCKSIKGYKGGYCNKGGFVCKCY [Mutation A31N]
- Average MIC [3]: 9 micrograms/mL
- Activity (antimicrobial activity relative to the activity of plectasin) [6]: 3

Substance: GFGCNGPWDEDDMQCHSHCKSIRGYKGGYCAKGGFVCKCY [N17S + K23R]
- Average MIC [3]: 14 micrograms/mL
- Activity (antimicrobial activity relative to the activity of plectasin) [6]: 2

Substance: GFGCNGPWDEDDMSCHNHCKSIKGYKGGYCAKGGFVCKCY [Mutation Q14S]
- Average MIC [3]: 21 micrograms/mL
- Activity (antimicrobial activity relative to the activity of plectasin) [6]: 3

Substance: GFGCNGPWDEDDMVCHNHCKSIKGYRGGYCAKGGFVCKCY [Q14V + K26R]
- Average MIC [3]: 12 micrograms/mL
- Activity (antimicrobial activity relative to the activity of plectasin) [6]: 3

Substance: GFGCNGPWDEDDRQCHNHCKSIKGYKGGYCAKGGFVCKCY [Mutation M13R]
- Average MIC [3]: 9 micrograms/mL
- Activity (antimicrobial activity relative to the activity of plectasin) [6]: 3

Substance: GFGCNGPWDEDDSQCHNHCKSIKGYKGGYCAKGGFVCKCY [Mutation M13S]
- Average MIC [3]: 24 micrograms/mL
- Activity (antimicrobial activity relative to the activity of plectasin) [6]: 3

Substance: GFGCNGPWDEDDTQCHNHCKSIKGYKGGYCAKGGFVCKCY [Mutation M13T]
- Average MIC [3]: 26 micrograms/mL
- Activity (antimicrobial activity relative to the activity of plectasin) [6]: 2

Substance: GFGCNGPWDEGDMQCHNHCKSVKGYKGGYCAKGGFVCKCY [D11G + I22V]
- Average MIC [3]: 17 micrograms/mL
- Activity (antimicrobial activity relative to the activity of plectasin) [6]: 3

Substance: GFGCNGPWGEDDMQCHNHCKSIKGYKGGYCAKGGFVCKCY [Mutation D9G]
- Average MIC [3]: 21 micrograms/mL
- Activity (antimicrobial activity relative to the activity of plectasin) [6]: 3

Substance: GFGCNGPWKEDDMQCHNHCKSIKGYKGGYCAKGGFVCKCY [Mutation D9K]
- Average MIC [3]: 7 micrograms/mL
- Activity (antimicrobial activity relative to the activity of plectasin) [6]: 3

Substance: GFGCNGPWSEDDMQCHNHCKSIKGYKGGYCAKGGFVCKCY [Mutation D9S]
- Relative MIC, strain C [1]: 3 (<50% of Plectasin wildtype MIC)
- Relative MIC, strain A [2]: 2 (50-80% of Plectasin wildtype MIC)
- Average MIC [3]: 7 micrograms/mL
- Relative MIC, strain D [5]: 2 (50-80% of Plectasin wildtype MIC)
- Activity (antimicrobial activity relative to the activity of plectasin) [6]: 3
- Relative MIC, strain B [7]: 3 (<50% of Plectasin wildtype MIC)

Substance: GFGCNGPWVEDDMQCHNHCKSIKGYKGGYCAKGGFVCKCY [Mutation D9V]
- Average MIC [3]: 30 micrograms/mL
- Activity (antimicrobial activity relative to the activity of plectasin) [6]: 3

Substance: GFGCSGPWDEDDMQCHNHCKSIKGYKGGYCAKGGFVCKCY [Mutation N5S]
- Average MIC [3]: 24 micrograms/mL
- Activity (antimicrobial activity relative to the activity of plectasin) [6]: 3

Substance: M13F + Q14K + K26R: variant of Plectasin (SEQ ID NO: 1) (GFGCNGPWDEDDFKCHNHCKSIKGYRGGYCAKGGFVCKCY)
- Relative MIC, strain C [1]: 3 (<50% of Plectasin wildtype MIC)
- Relative MIC, strain A [2]: 3 (<50% of Plectasin wildtype MIC)
- Average MIC [3]: 6 micrograms/mL
- Relative MIC, strain E [4]: 3 (<50% of Plectasin wildtype MIC)
- Relative MIC, strain D [5]: 3 (<50% of Plectasin wildtype MIC)

Substance: M13L + Q14K + K26R: variant of Plectasin (SEQ ID NO: 1) (GFGCNGPWDEDDLKCHNHCKSIKGYRGGYCAKGGFVCKCY)
- Relative MIC, strain C [1]: 3 (<50% of Plectasin wildtype MIC)
- Relative MIC, strain A [2]: 3 (<50% of Plectasin wildtype MIC)
- Average MIC [3]: 9 micrograms/mL
- Relative MIC, strain D [5]: 3 (<50% of Plectasin wildtype MIC)

Substance: N5R + M13V: variant of Plectasin (SEQ ID NO: 1) (GFGCRGPWDEDDVQCHNHCKSIKGYKGGYCAKGGFVCKCY)
- Relative MIC, strain C [1]: 3 (<50% of Plectasin wildtype MIC)
- Relative MIC, strain A [2]: 3 (<50% of Plectasin wildtype MIC)
- Average MIC [3]: 5 micrograms/mL
- Relative MIC, strain E [4]: 3 (<50% of Plectasin wildtype MIC)
- Relative MIC, strain D [5]: 2 (50-80% of Plectasin wildtype MIC)

Substance: N5S + M13W + N17R: variant of Plectasin (SEQ ID NO: 1) (GFGCSGPWDEDDWQCHRHCKSIKGYKGGYCAKGGFVCKCY)
- Relative MIC, strain C [1]: 3 (<50% of Plectasin wildtype MIC)
- Relative MIC, strain A [2]: 3 (<50% of Plectasin wildtype MIC)
- Average MIC [3]: 2 micrograms/mL
- Relative MIC, strain E [4]: 3 (<50% of Plectasin wildtype MIC)
- Relative MIC, strain D [5]: 3 (<50% of Plectasin wildtype MIC)

Substance: S21A: antimicrobial peptide of the invention, Plectasin variant (GFGCNGPWDEDDMQCHNHCKAIKGYKGGYCAKGGFVCKCY) [Mutation S21A]
- Average MIC [3]: 17 micrograms/mL

Substance: S21N: antimicrobial peptide of the invention, Plectasin variant (GFGCNGPWDEDDMQCHNHCKNIKGYKGGYCAKGGFVCKCY) [Mutation S21N]
- Average MIC [3]: 11 micrograms/mL

Substance: S21V: antimicrobial peptide of the invention, Plectasin variant (GFGCNGPWDEDDMQCHNHCKVIKGYKGGYCAKGGFVCKCY) [Mutation S21V]
- Average MIC [3]: 26 micrograms/mL
